Laboratory results published in patent US20040005652A1 (priority 2002, published 2004).

Experiments:
[1] = test system: B. anthrasis; details: cited from earlier work
[2] = test system: B. thuringiensis; details: cited from earlier work
[3] = test system: B. cereus; details: cited from earlier work
[4] = test system: Bacillus cereus ATCC 14579; type: cell-based
[5] = test system: Bacillus thuringiensis ATCC 10792; type: cell-based
[6] = test system: Bacillus anthrasis AMES-RIID and ANR-1; type: cell-based

Row | Compound | colony colour, B. anthrasis [1] | colony colour, B. thuringiensis [2] | colony colour, B. cereus [3] | Bacillus cereus ATCC 14579 Colonial Morphologies 48 hours [4] | Bacillus thuringiensis ATCC 10792 Colonial Morphologies 48 hours [5] | Bacillus anthrasis AMES-RIID and ANR-1 Colonial Morphologies 48 hours [6]
1 | O=P(O)(Oc1c[nH]c2ccc(Br)c(Cl)c12)OC1C(O)C(O)C(O)C(O)C1O (stereo not drawn) [5-bromo-4-chloro-3-indoxyl-myo-inositol-1-phosphate] | white colonies | turquoise colonies | turquoise colonies | – | – | –
2 | Manganese chloride | – | – | – | turquoise colonies with a narrow rim | turquoise colonies with a narrow rim | cream color colony with a blue dot in the center
